Measured values from publication PMC6151437, “Antibacterial Synthetic Peptides Derived from Bovine Lactoferricin Exhibit Cytotoxic Effect against MDA-MB-468 and MDA-MB-231 Breast Cancer Cell Lines” (Molecules : A Journal of Synthetic Chemistry and Natural …, 2017).
≈ marks a conversion by molar mass, not a printed value. Where two headings read alike, the source gives them in different places. Bridge positions count the residues as written; N and C are the ends. Square brackets hold non-standard residues; d marks the D form. Ends that are not written are not given here. Peptide text beside a SMILES is read from it. I, II: the chains in the order shown. Ahx = NCCCCCC(=O)O

Legend:
S. aureus ATCC 25923 = system: S. aureus ATCC 25923; set-up: method as in ref 15, 25, 26 = [15]; PMID 25815317; doi:10.1155/2015/453826; 15. León M.A. Leal A.L. Almanzar G. Rosas J.E. García J.E. Rivera Z.J. Antibacterial activity of synthetic peptides derived from Lactoferricin against Escherichia coli ATCC 25922 and Enterococcus faec || [25]; PMID 28613262; doi:10.3390/molecules22060987; 25. Huertas N.J. Monroy Z.J.R. Medina R.F. Castañeda J.E.G. Antimicrobial Activity of Truncated and Polyvalent Peptides Derived from the FKCRRWQWRMKKGLA Sequence against Escherichia coli ATCC 25922 an || [26]; PMID 28287494; doi:10.3390/molecules22030452; 26. Huertas Méndez N.J. Vargas Casanova Y. Gómez Chimbi A.K. Hernández E. Leal Castro A.L. Melo Diaz J.M. Rivera Monroy Z.J. García Castañeda J.E. Synthetic Peptides Derived from Bovine Lactoferricin; details: cited from earlier work
[1] = assay type: cell-based, human
Experimental: (§1) Cytotoxicity assays were performed as previously described. Briefly, breast cancer cell lines (100 µL; 2.5 × 10^3 cells/well) were seeded in 96-well flat bottom tissue culture treated plates and were incubated at 37 °C in a 10% CO2 humidified atmosphere for 24 h, allowing for cell adhesion. Then the media was removed, then 100 µL of FBS (5%) and 100 µL of peptide were added. The peptide final concentration was ranging from 200 to 6.25 µg/mL and the final FBS concentration was 2.5%. Plates were incubated 2 h at 37 °C in a 10% CO2 humidified atmosphere (physiologic pH). Negative controls included medium and water. All controls were prepared in triplicate. Cell viability was determined using the MTT assay after 2 h. For this, 10 µL of MTT solution (5 mg/mL) was added to each well, and the plates were incubated for 2 h at 37 °C. Formazan crystals were clarified by centrifugation, the supernatant was discarded, and the crystals were dissolved in DMSO (100 µL). Absorbance (570 nm) was registered on a Bio-Rad 680 microplate reader. (n = 3).

E. coli = system: E. coli; set-up: method as in ref 15, 25, 26 = [15]; PMID 25815317; doi:10.1155/2015/453826; 15. León M.A. Leal A.L. Almanzar G. Rosas J.E. García J.E. Rivera Z.J. Antibacterial activity of synthetic peptides derived from Lactoferricin against Escherichia coli ATCC 25922 and Enterococcus faec || [25]; PMID 28613262; doi:10.3390/molecules22060987; 25. Huertas N.J. Monroy Z.J.R. Medina R.F. Castañeda J.E.G. Antimicrobial Activity of Truncated and Polyvalent Peptides Derived from the […] Sequence against Escherichia coli ATCC 25922 an || [26]; PMID 28287494; doi:10.3390/molecules22030452; 26. Huertas Méndez N.J. Vargas Casanova Y. Gómez Chimbi A.K. Hernández E. Leal Castro A.L. Melo Diaz J.M. Rivera Monroy Z.J. García Castañeda J.E. Synthetic Peptides Derived from Bovine Lactoferricin; details: first of three values given 'respectively', strain not distinguished; cited from earlier work
E. coli ATCC 11775 [2] = assay type: cell-based
Experimental: (§2) The minimal inhibitory concentration (MIC) was determined using a microdilution assay. In brief, bacterial strains were incubated for 18 to 24 h at 37 °C in an Muller Hinton broth (MHB) until an optical density of 0.15 to 0.30 (620 nm) was obtained. 90 µL of MHB was mixed with 90 µL of peptide (440 µg/mL), and using a 96-well microtiter plate peptide, serial dilution (200, 100, 50, 25, 12.5, and 6.2 µg/mL) was performed. 10 µL of inoculum (2 × 10^6 CFU/mL) was added to each well. Final volume in each well was 100 µL. Then they were incubated for 24 h at 37 °C, and the absorbance at 620 nm was measured using an Asys Expert Plus ELISA reader. For determining the minimum bactericidal concentration (MBC), a small sample was taken from each well using an inoculation loop, which was then spread on MHA plates and incubated overnight at 37 °C. […] Each of these tests was performed twice (n = 2).

E. coli ATCC 25922 [3] = assay type: cell-based
Experimental: as §2

[4] = system: S. enteriditis ATCC 13076; set-up: method as in ref 15, 25, 26 = [15]; PMID 25815317; doi:10.1155/2015/453826; 15. León M.A. Leal A.L. Almanzar G. Rosas J.E. García J.E. Rivera Z.J. Antibacterial activity of synthetic peptides derived from Lactoferricin against Escherichia coli ATCC 25922 and Enterococcus faec || [25]; PMID 28613262; doi:10.3390/molecules22060987; 25. Huertas N.J. Monroy Z.J.R. Medina R.F. Castañeda J.E.G. Antimicrobial Activity of Truncated and Polyvalent Peptides Derived from the FKCRRWQWRMKKGLA Sequence against Escherichia coli ATCC 25922 an || [26]; PMID 28287494; doi:10.3390/molecules22030452; 26. Huertas Méndez N.J. Vargas Casanova Y. Gómez Chimbi A.K. Hernández E. Leal Castro A.L. Melo Diaz J.M. Rivera Monroy Z.J. García Castañeda J.E. Synthetic Peptides Derived from Bovine Lactoferricin; details: cited from earlier work
[5] = assay type: cell-based, human; remark: listed apart in the source
Experimental: as §1

[6] = system: human gastric cancer cell line AGS; details: cited from earlier work
[7] = system: breast cancer cell line MDA-MB-231; details: even at the highest tested concentration (40 µM); cited from earlier work
Experimental: For the second part of the experiments, all members of each designed peptide family were tested against MDA-MB-468 and MDA-MB-231 breast cancer cell lines (Figure 3). […] When breast cancer cells lines were incubated with linear peptides or cyclic peptides (200 µg/mL), their viability was approximately 80%.

E. coli ATCC 25922 [8] = system: E. coli ATCC 25922; set-up: method as in ref 15, 25, 26 = [15]; PMID 25815317; doi:10.1155/2015/453826; 15. León M.A. Leal A.L. Almanzar G. Rosas J.E. García J.E. Rivera Z.J. Antibacterial activity of synthetic peptides derived from Lactoferricin against Escherichia coli ATCC 25922 and Enterococcus faec || [25]; PMID 28613262; doi:10.3390/molecules22060987; 25. Huertas N.J. Monroy Z.J.R. Medina R.F. Castañeda J.E.G. Antimicrobial Activity of Truncated and Polyvalent Peptides Derived from the FKCRRWQWRMKKGLA Sequence against Escherichia coli ATCC 25922 an || [26]; PMID 28287494; doi:10.3390/molecules22030452; 26. Huertas Méndez N.J. Vargas Casanova Y. Gómez Chimbi A.K. Hernández E. Leal Castro A.L. Melo Diaz J.M. Rivera Monroy Z.J. García Castañeda J.E. Synthetic Peptides Derived from Bovine Lactoferricin; details: cited from earlier work
E. coli ATCC 11775 [9] = system: E. coli ATCC 11775; set-up: method as in ref 15, 25, 26 = [15]; PMID 25815317; doi:10.1155/2015/453826; 15. León M.A. Leal A.L. Almanzar G. Rosas J.E. García J.E. Rivera Z.J. Antibacterial activity of synthetic peptides derived from Lactoferricin against Escherichia coli ATCC 25922 and Enterococcus faec || [25]; PMID 28613262; doi:10.3390/molecules22060987; 25. Huertas N.J. Monroy Z.J.R. Medina R.F. Castañeda J.E.G. Antimicrobial Activity of Truncated and Polyvalent Peptides Derived from the FKCRRWQWRMKKGLA Sequence against Escherichia coli ATCC 25922 an || [26]; PMID 28287494; doi:10.3390/molecules22030452; 26. Huertas Méndez N.J. Vargas Casanova Y. Gómez Chimbi A.K. Hernández E. Leal Castro A.L. Melo Diaz J.M. Rivera Monroy Z.J. García Castañeda J.E. Synthetic Peptides Derived from Bovine Lactoferricin; details: cited from earlier work
[10] = E. coli ATCC 11775, microdilution in MHB, 24 h at 37 °C, absorbance 620 nm, n = 2
[11] = E. coli ATCC 11775, plated on MHA overnight at 37 °C, no bacterial growth, n = 2
[12] = E. coli ATCC 25922, microdilution in MHB, 24 h at 37 °C, absorbance 620 nm, n = 2
[13] = E. coli ATCC 25922, plated on MHA overnight at 37 °C, no bacterial growth, n = 2

Compound	MIC (S. aureus ATCC 25923)	IC50 at 2 h ([1]; human)	MIC (E. coli)	Antibacterial Effect MBC (E. coli ATCC 11775 [2]; ATCC 11775)	Antibacterial Effect MIC (E. coli ATCC 11775 [2]; ATCC 11775, 24 h)	Antibacterial Effect MIC (E. coli ATCC 11775 [2]; [10])	Antibacterial Effect MBC (E. coli ATCC 11775 [2]; [11])	Antibacterial Effect MBC (E. coli ATCC 25922 [3]; ATCC 25922)	Antibacterial Effect MIC (E. coli ATCC 25922 [3]; ATCC 25922, 24 h)	Antibacterial Effect MIC (E. coli ATCC 25922 [3]; [12])	Antibacterial Effect MBC (E. coli ATCC 25922 [3]; [13])	MIC [4]	IC50 [1]	IC50 [5]	IC50 [6]	cytotoxic activity (in words) [7]	MIC (E. coli ATCC 25922 [8])	MIC (E. coli ATCC 11775 [9])
N=C(N)NCCC[C@H](NC(=O)[C@H](Cc1c[nH]c2ccccc12)NC(=O)[C@H](CCC(N)=O)NC(=O)[C@H](Cc1c[nH]c2ccccc12)NC(=O)[C@H](CCCNC(=N)N)NC(=O)[C@@H](N)CCCNC(=N)N)C(=O)NCCCC[C@H](NC(=O)[C@H](CCCNC(=N)N)NC(=O)[C@H](Cc1c[nH]c2ccccc12)NC(=O)[C@H](CCC(N)=O)NC(=O)[C@H](Cc1c[nH]c2ccccc12)NC(=O)[C@H](CCCNC(=N)N)NC(=O)[C@@H](N)CCCNC(=N)N)C(=O)NCCCCCC(N)=O [LfcinB (20–25)2] (I: H-RRWQWRK[Ahx]-NH2 / II: H-RRWQWR; amide I:7-II:C)	5.6 µM (≈ 12.3 µg/mL)	> 100 µM	2.8 µM (≈ 6.15 µg/mL)	22 µM	22 µM	50 µg/mL	50 µg/mL	11 µM	6 µM	12.5 µg/mL	25 µg/mL	22.4 µM (≈ 49.2 µg/mL)						
RRWQWR-NH2 [LfcinB (20–25)]				203 µM	203 µM			203 µM	203 µM				> 203 µM	> 203 µM	> 500 µM	weak cytotoxic activity		
N=C(N)NCCC[C@H](NC(=O)[C@H](Cc1c[nH]c2ccccc12)NC(=O)[C@H](CCC(N)=O)NC(=O)[C@H](Cc1c[nH]c2ccccc12)NC(=O)[C@H](CCCNC(=N)N)NC(=O)[C@@H](N)CCCNC(=N)N)C(=O)NCCCC[C@H](NC(=O)[C@H](CCCNC(=N)N)NC(=O)[C@H](Cc1c[nH]c2ccccc12)NC(=O)[C@H](CCC(N)=O)NC(=O)[C@H](Cc1c[nH]c2ccccc12)NC(=O)[C@H](CCCNC(=N)N)NC(=O)[C@@H](N)CCCNC(=N)N)C(=O)NCCCCCC(=O)N[C@@H](CSSC[C@H](NC(=O)CCCCCNC(=O)[C@H](CCCCNC(=O)[C@H](CCCNC(=N)N)NC(=O)[C@H](Cc1c[nH]c2ccccc12)NC(=O)[C@H](CCC(N)=O)NC(=O)[C@H](Cc1c[nH]c2ccccc12)NC(=O)[C@H](CCCNC(=N)N)NC(=O)[C@@H](N)CCCNC(=N)N)NC(=O)[C@H](CCCNC(=N)N)NC(=O)[C@H](Cc1c[nH]c2ccccc12)NC(=O)[C@H](CCC(N)=O)NC(=O)[C@H](Cc1c[nH]c2ccccc12)NC(=O)[C@H](CCCNC(=N)N)NC(=O)[C@@H](N)CCCNC(=N)N)C(N)=O)C(N)=O [LfcinB (20–25)4] (I: H-RRWQWRK[Ahx]C-NH2 / II: H-RRWQWRK[Ahx]C-NH2 / III: H-RRWQWR / IV: H-RRWQWR; amide I:7-III:C, II:7-IV:C; disulfide I:9-II:9)	25 µM (≈ 115 µg/mL)			44 µM	22 µM	100 µg/mL	200 µg/mL	22 µM	22 µM	100 µg/mL	100 µg/mL	44 µM (≈ 202 µg/mL)					4.4 µM (≈ 20.2 µg/mL)	5.5 µM (≈ 25.3 µg/mL)
